Assay results published in article PMC11996864, “A small-molecule inhibitor of BCL10-MALT1 interaction abrogates progression of diffuse large B cell lymphoma” (The Journal of Clinical Investigation, 2025).
Where “and” joins values, the source holds several entries; their conditions need not be identical. Equal entries are not always repeated.

Assays:
[1] = test system: IL-2 secretion from primary mouse splenocytes; experiment: Secreted IL-2 ELISA, stimulated primary splenocytes; format: cell-based; conditions: for IL-2 protein level (% of control): Suppl Fig. 4B
Text: (§1) Plasmids. Plasmids for transfection were verified with Sanger Sequencing. Unless otherwise indicated, plasmids were made by subcloning cDNA fragments from constructs described in previous publications, as noted, and/or site directed mutagenesis. Plasmids in the pcDNA3 or pcDNA3.1 backbone include HA-MALT1(isoform B) (2), HA-MALT1(DD+Ig1-2) (aa 1- […]
MALT1(Ig1-2) V189R, HA-MALT1(Ig1-2) W203_Q205delinsAAA (Vector Builder), HA-MALT1(Ig1-2) H257_Q259delinsAAA (Vector Builder), HA-MALT1(Ig1-2)
P254_P256delinsAAA (Vector Builder), HA-MALT1(Ig1-2) H269_T271delinsAAA (Vector Builder), HA-MALT1(Ig1-2) K272_L274delinsAAA (Vector Builder), HA-MALT1 V189R (Vector Builder), HA-MALT1 V81R, HA-BCL10 (GeneCopoeia, Cat# M0769-M07), HA-BCL10 E53R, Myc-BCL10 (previously called CIPER) (3), Myc-BCL10 E53R, Myc-RICK (4), Myc-MAVS (subcloned from FLAG-MAVS (5)), and empty vector pCDNA3.1HA as a control.
ELISA-based protein-protein interaction assay. On a high-binding 96-well ELISA microplate (Greiner Cat# 655061), 100 ng of His-tagged recombinant human full-length BCL10 protein (Novus Cat# NBP1-99064) or in 100 µl PBS was allowed to adhere overnight at 4°C. The plate was blocked with 5% BSA in PBS for 1 hour at room temperature. After washing twice with PBS-T, a mixture of 100 ng of GST-tagged recombinant human full-length MALT1 protein (Novus Biologicals Cat# H00010892-P01) and compound that was preincubated for 1 hour in 100 μl PBS was added to the plate for 1 hour at room temperature. After washing three times with PBS-T, anti-MALT1 antibody (Cell Signaling Technology, Cat# 2494) in 5% BSA in PBS was added at 1:1000 dilution for 1 hour at room temperature. After washing three times with PBS-T, HRP-conjugated secondary antibody in 5% BSA in PBS was added at 1:5000 dilution for 1 hour at room temperature. After washing three times with PBS-T, 100 µl of 3,3’,5,5’-tetramethylbenzidine (TMB) substrate solution (Thermo Scientific, Cat# 34028) was added for up to 15 minutes, and 100 µl of 2 M sulfuric acid was added to stop the reaction. The plate was read at 450 nm using a spectrophotometer (Molecular Devices SpectraMax i3). The MyoD1/ID ELISA was performed as above except that 100 ng of recombinant human His-tagged MyoD1 (Proteintech, Cat# Ag13186) was plated overnight at 4°C prior to the addition of 100 ng of recombinant human GST-ID1 (Proteintech, Cat# Ag13359) preincubated to with compounds. The anti-GST antibody (clone 26H1, Cell signaling Technology, Cat #2624) was used to detect bound ID1.
Cytokine ELISAs. Cytokines in cell culture supernatants were measured 20-24h after treatment with 0, 0.01, 0.03, 0.1, 0.3, 1, or 3 µM of compounds using the following ELISA kits according to the manufacturer’s instructions: Human IL-2 ELISA (BioLegend Cat# 431804), Human IL-6 ELISA (BioLegend Cat# 430504), and Human IL-10 ELISA (BioLegend Cat# 430604). TMD8 and OCI-Ly3 cells were treated with specific doses of compounds in serum-free media for 20 hours. Jurkat T cells were pretreated with specific doses of compounds for 8 hours in serum-free media, then stimulated with PMA/ionomycin for 16 hours prior to the collection of supernatants.
Mouse splenocytes were isolated from spleens of C57/BL6 mice by passing spleens through a 70 micron filter followed by red blood cell lysis using ACK lysing buffer (Quality Biologics, Cat# 118-156-101). […]
(§2) Mouse T-Activator CD3/C28. Supernatant was collected at 24 hours and mouse IL-2 levels were analyzed via ELISA (R&D Systems, Cat# DY402-05).

BCL10-MALT1 interaction = molecular target: T1, BCL10-MALT1 interaction (Homo sapiens, UniProt Q9UDY8); experiment: ELISA-based BCL10-MALT1 protein-protein interaction assay; conditions: MALT1 preincubated 1 hour with compound; read-out: IC50, inhibition of MALT1 binding to immobilized BCL10
T1 construct: GST-tagged recombinant human full-length MALT1 protein in solution; purchased Novus Biologicals H00010892-P01 (MALT1); NBP1-99064 (BCL10)
T1 sequence (Q9UDY8 1-813 isoform Q9UDY8-2): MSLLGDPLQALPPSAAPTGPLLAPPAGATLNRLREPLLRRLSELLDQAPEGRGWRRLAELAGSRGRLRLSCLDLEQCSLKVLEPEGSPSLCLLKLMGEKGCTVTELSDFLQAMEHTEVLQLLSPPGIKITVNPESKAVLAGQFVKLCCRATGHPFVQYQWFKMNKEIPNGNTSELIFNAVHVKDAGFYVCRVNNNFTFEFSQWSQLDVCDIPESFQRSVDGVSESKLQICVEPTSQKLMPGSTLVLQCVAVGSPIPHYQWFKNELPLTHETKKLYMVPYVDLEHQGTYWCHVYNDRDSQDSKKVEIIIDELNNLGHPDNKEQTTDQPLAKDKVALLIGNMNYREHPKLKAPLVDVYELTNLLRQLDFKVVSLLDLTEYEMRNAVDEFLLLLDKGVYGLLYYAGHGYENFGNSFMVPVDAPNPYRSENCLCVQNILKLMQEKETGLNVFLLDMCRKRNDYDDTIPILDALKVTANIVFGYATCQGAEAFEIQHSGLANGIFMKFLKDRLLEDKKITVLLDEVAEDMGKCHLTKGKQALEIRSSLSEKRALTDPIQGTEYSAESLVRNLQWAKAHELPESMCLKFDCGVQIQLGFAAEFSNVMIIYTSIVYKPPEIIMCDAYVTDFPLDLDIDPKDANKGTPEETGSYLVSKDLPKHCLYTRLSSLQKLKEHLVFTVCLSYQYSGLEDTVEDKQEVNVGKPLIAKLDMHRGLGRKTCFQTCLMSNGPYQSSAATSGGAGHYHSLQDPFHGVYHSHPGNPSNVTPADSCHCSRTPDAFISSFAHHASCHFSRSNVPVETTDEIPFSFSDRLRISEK
Text: A 96-well ELISA was employed, whereby His-tagged full-length BCL10 protein was immobilized in wells and exposed to GST-tagged recombinant human full-length MALT1 protein in solution, followed by detection with anti-MALT1 antibody. Details are provided in Supplemental Methods.
as §1
MALT1(Ig1-2) V189R, HA-MALT1(Ig1-2) W203_Q205delinsAAA (Vector Builder), HA-MALT1(Ig1-2) H257_Q259delinsAAA (Vector Builder), HA-MALT1(Ig1-2) […]
ELISA-based protein-protein interaction assay. […] The plate was read at 450 nm using a spectrophotometer (Molecular Devices SpectraMax i3). […]
(§3) Cytokine ELISAs. Cytokines in cell culture supernatants were measured 20-24h after treatment with 0, 0.01, 0.03, 0.1, 0.3, 1, or 3 µM of compounds using the following ELISA kits according to the manufacturer’s instructions: Human IL-2 ELISA (BioLegend Cat# 431804), Human IL-6 ELISA (BioLegend Cat# 430504), and Human IL-10 ELISA (BioLegend Cat# 430604). […]
as §2

OCI-Ly1 cells = experiment: Apoptosis, annexin V/SYTOX Blue flow cytometry; format: cell-based, human
Description: Cell proliferation, viability, and apoptosis assays. […]
Annexin V Alexa 488
(ThermoFisher Scientific, Cat# A13201) and SYTOX Blue Dead Cell (ThermoFisher Scientific, Cat# S34857) stains were used to detect apoptosis in DLBCL cells after treatment with 1 µM compounds for 8 days in TMD8 and OCI-Ly1 and for 5 days in OCI-Ly3 cells, then analyzed with flow cytometry. The percentages of cells in early and late apoptosis were combined for quantification. For CellTrace Violet, CellTiter-glo, and Annexin V apoptosis assays, cell were cultured in media with 50% of the usual serum. […]

TMD8 cells = experiment: IL-6 and IL-10 secretion, cytokine ELISA; format: cell-based, human; conditions: for IL-6 and IL-10 secretion: TMD8, result in words
Description: as §3

SMILES	IC50 (BCL10-MALT1 interaction)	IL-6 protein (normalized) (TMD8 cells; TMD8, Dose (µM) 0.01)	IL-10 protein (normalized) (TMD8 cells; TMD8, Dose (µM) 0.01)	IL-6 protein (normalized) (TMD8 cells; TMD8, Dose (µM) 0.03)	IL-10 protein (normalized) (TMD8 cells; TMD8, Dose (µM) 0.03)	IL-6 protein (normalized) (TMD8 cells; TMD8, Dose (µM) 0.1)	IL-10 protein (normalized) (TMD8 cells; TMD8, Dose (µM) 0.1)	IL-6 protein (normalized) (TMD8 cells; TMD8, Dose (µM) 0.3)	IL-10 protein (normalized) (TMD8 cells; TMD8, Dose (µM) 0.3)	IL-6 protein (normalized) (TMD8 cells; TMD8, Dose (µM) 1)	IL-10 protein (normalized) (TMD8 cells; TMD8, Dose (µM) 1)	IL-6 protein (normalized) (TMD8 cells; TMD8, Dose (µM) 3)	IL-10 protein (normalized) (TMD8 cells; TMD8, Dose (µM) 3)	IL-6 and IL-10 secretion (TMD8 cells)	other results
CN1CCCC(CN2c3ccccc3Sc3ccccc32)C1 (stereo not drawn) [Mepazine, mepazine, reference compound]															IL-2 protein level (% of control) ([1]; CD3/CD28 treated, 1 uM): 96.0182 % of control and 76.5551 % of control; IL-2 protein level (% of control) ([1]; PMA/Iono treated, 1 uM): 66.5904 % of control and 66.2291 % of control
O=S(=O)(NCc1ccc2c(c1)OCO2)c1ccc(Cc2ccc(S(=O)(=O)NCc3ccc4c(c3)OCO4)cc2)cc1 [M1i-124]	16 µM	95.9364 and 102.213 and 93.8323	92.0215 and 104.795 and 93.5401	87.0698 and 93.9663 and 88.6054	92.6437 and 90.5031 and 81.0478	69.9434 and 74.7992 and 78.3531	68.4368 and 67.4137 and 68.4567	69.7251 and 64.7937 and 50.8437	56.1427 and 56.6527 and 44.4473	36.3116 and 40.2609 and 34.3135	37.7839 and 38.0405 and 34.7537	26.8371 and 27.7392 and 25.9151	23.1611 and 23.3192 and 20.6767	dose-dependent reduction of IL-6 and IL-10 secretion	Annexin (% positivity) (OCI-Ly1 cells; Ly1, individual replicates): 14.6% and 13.45% and 17.85%; IL-2 secretion from primary mouse splenocytes ([1]; 1 μM, PMA/Iono or anti-CD3/CD28, result in words): reduced IL-2 secretion; IL-2 protein level (% of control) ([1]; CD3/CD28 treated): 50.4652 % of control and 31.9351 % of control and 38.7736 % of control; IL-2 protein level (% of control) ([1]; PMA/Iono treated): 60.6294 % of control and 65.2902 % of control and 36.6638 % of control; IC50 (TMD8 cells; Homo sapiens, cell-based assays measuring functional MALT1 inhibition, span over cytokines and cell lines (TMD8, OCI-Ly3; Supplemental Table 1)): 0.5 to 1.3 µM
COc1ccc(CNS(=O)(=O)c2ccc(Cc3ccc(S(=O)(=O)NCc4ccc(OC)cc4)cc3)cc2)cc1 [M1i-124d1]	34 µM	93.5197 and 93.7514 and 94.5387	69.769 and 89.382 and 96.8917	91.3047 and 88.3022 and 85.704	62.2564 and 54.1514 and 73.6549	77.5452 and 70.6916 and 62.4629	60.4815 and 45.5606 and 38.3417	55.6968 and 55.4486 and 52.1775	40.1613 and 36.3491 and 28.9939	45.5895 and 45.5473 and 39.027	29.9544 and 27.9974 and 29.4587	41.6763 and 36.3341 and 29.5994	27.5683 and 24.6599 and 35.0793	dose-dependent reduction of IL-6 and IL-10 secretion	Percent Apoptotic cells (OCI-Ly1 cells; OCI-Ly1): 9.94% and 10.39% and 9.5% and 11.36% and 12.09% and 11.72%
